Test results as given in US8598313B2, “Compositions for ameliorating cell proliferative disorders and methods of making and using them” (priority 2010, dated 2013).

Tests used:
cancer cell lines = conditions: cytotoxicity SAR; cited from earlier work
[1] = test system: NCI H-460 human lung tumor cells; experiment: Cytotoxicity in NCI H-460 human lung tumor cells, MTT reduction; type: cell-based
Procedure: Cytotoxicity was measured in NCI H-460 human lung tumor cells with cell viability being determined by MTT reduction.^[23] Cells were seeded in 96-well plates at 6000 cells/well in 180 μL of medium. After 24 h, the test chemicals were dissolved in DMSO and diluted into medium without fetal bovine serum and then added at […]. DMSO was less than 0.5% of the final concentration. After 48 h, the medium was removed and cell viability determined.

Molecule | loss of activity compared to apratoxin A (cancer cell lines) | activity compared to apratoxin A (cancer cell lines) | further results
CC[C@H](C)[C@@H]1NC(=O)[C@H](C)N(C)C(=O)[C@H](Cc2ccc(OC)cc2)NC(=O)/C(C)=C/[C@H]2CSC(=N2)[C@@H](C)[C@@H](O)C[C@H](C)C[C@@H](C(C)(C)C)OC(=O)[C@@H]2CCCN2C1=O [apratoxin B] | 30 to 40 fold |  | 
CC[C@H](C)[C@H]1C(=O)N2CCC[C@H]2C(=O)O[C@H](C(C)C)C[C@@H](C)C[C@H](O)[C@H](C)C2=N[C@@H](/C=C(\C)C(=O)N[C@@H](Cc3ccc(OC)cc3)C(=O)N(C)[C@@H](C)C(=O)N1C)CS2 [apratoxin C] | 2 fold |  | 
CC[C@H](C)[C@H]1C(=O)N2CCC[C@H]2C(=O)O[C@H]([C@@H](C)CC(C)(C)C)C[C@@H](C)C[C@H](O)[C@H](C)C2=N[C@@H](/C=C(\C)C(=O)N[C@@H](Cc3ccc(OC)cc3)C(=O)N(C)[C@@H](C)C(=O)N1C)CS2 [apratoxin D] |  | roughly equivalent activity | 
COc1ccc(C[C@@H]2NC(=O)/C(C)=C/C3CSC(=N3)[C@@H](C)[C@@H](O)C[C@H](C)C[C@@H](C(C)(C)C)OC(=O)[C@H](C)N(C)C(=O)[C@H](C(C)C)N(C)C(=O)[C@H](C)N(C)C2=O)cc1 (stereo partly shown) [apratoxin G] |  |  | IC50 ([1]; H-460 cancer cells, MTT, 48 h): 0.014 µM; reduction in activity compared to apratoxin F ([1]; N-methyl isoleucine exchanged for N-methyl valine): 7 fold
(E)-34,35-dehydro-apratoxin A | 72-230 fold |  | 
apratoxin E |  | only a modest loss of activity | 
